Format in all cases: in vivo
Data set [1] has as its system Cabbage Looper (Trichoplusia ni) ("CL"). The data set is described as follows: Bioassay on cabbage looper (CL), 128-well diet tray assay. As to conditions: 168 h, 50 μg/cm^2 on artificial diet, second instar CL larvae, 25° C., five to seven days, average of eight wells, read-out: CL % Control (or Mortality) rating. The gist of the method:
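Percent mortality, averaged across eight replicate wells, was read after five to seven days at 25 °C under a 14:10 photoperiod. Each well held one to five second-instar T. ni on diet carrying a dried 50 μg/cm^2 dose applied in acetone-water 90:10.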

For data set [2], the system named is Green Peach Aphid ("GPA") (Myzus persicae). The data set is described as follows: Bioassay on green peach aphid (GPA), foliar spray on cabbage seedlings. The settings on record: Myzus persicae, foliar, 72 h; 200 ppm spray on infested cabbage seedlings, three days, Abbott corrected % control; read-out: GPA % Control (or Mortality) rating. How it is done: Certain molecules disclosed in this document were tested against GPA using procedures described in the following example. In the reporting of the results, the “GPA Rating Table” was used (See Table Section).
Cabbage seedlings grown in 3-inch pots, with 2-3 small (3-5 cm) true leaves, were used as test substrate. The seedlings were infested with 20-50 GPA (wingless adult and nymph stages) one day prior to chemical application. Four pots with individual seedlings were used for each treatment. Test compounds (2 mg) were dissolved in 2 mL of acetone/methanol (1:1) solvent, forming stock solutions of 1000 ppm test compound. The stock solutions were diluted 5× with 0.025% Tween 20 in water to obtain the solution at 200 ppm test compound. A hand-held aspirator-type sprayer was used for spraying a solution to both sides of […] leaves until runoff. Reference plants (solvent check) were sprayed with the diluent only containing 20% by volume of acetone/methanol (1:1) solvent. Treated plants were held in a holding room for three days at approximately 25° C. and ambient relative humidity (RH) prior to grading. Evaluation was conducted by counting the number of live aphids per plant under a microscope. Percent Control was measured by using Abbott's correction formula (W. S. Abbott, “A Method of Computing the Effectiveness of an Insecticide” J. Econ. Entomol. 18 (1925), pp. 265-267) as follows. Corrected % Control=100*(X−Y)/X • where • X=No. of live aphids on solvent check plants and • Y=No. of live aphids on treated plants

Data set [3] has as its system Beet Armyworm (Spodoptera exigua) ("BAW"). Nature of the data set: Bioassay on beet armyworm (BAW), 128-well diet tray assay. The settings on record: 168 h, 50 μg/cm^2 on artificial diet, second instar BAW larvae, 25° C., five to seven days, average of eight wells, read-out: BAW % Control (or Mortality) rating. The gist of the method: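 Percent mortality, averaged across eight wells, was read after five to seven days at 25° C. under 14:10 light-dark. Each well held one to five second-instar larvae on artificial diet that had been treated with 50 μg/cm^2 compound in 90:10 acetone-water and dried.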

In data set [4] the test system is Yellow Fever Mosquito "YFM" (Aedes aegypti). The settings on record: about 1 day-old larvae, 96-well plate, room temperature, 3 days, mortality. The gist of the method:
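About 1 day-old Aedes aegypti larvae in liver-powder water added to wells holding compound diluted from 4000 ppm DMSO stock with 90:10 water:acetone, 6 replicate plates. Plates kept covered at room temperature for 3 days. Wells scored for mortality and reported as rating categories.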

As for `CC(C)c1ccccc1N1C(=O)CS/C1=N\C(=O)NCCc1ccc(-c2ncn(-c3ccc(OC(F)(F)F)cc3)n2)cc1` [F1, (Z)-1-(3-(2-isopropylphenyl)-4-oxothiazolidin-2-ylidene)-3-(4-(1-(4-(trifluoromethoxy)phenyl)-1H-1,2,4-triazol-3-yl)phenethyl)urea], the mortality at 50 µg/cm2 in data set [1] and in data set [3] was 50 to 100% in each case. The mortality at 200 ppm in data set [2] came to 0%.

Turning to `Cc1ccc(C(C)C)c(NC(=S)NC(=O)NCCc2ccc(-c3ncn(-c4ccc(OC(F)(F)F)cc4)n3)cc2)c1` [F3, N-[5-methyl-2-isopropylphenyl]-N′-[2-(4-{1-[4-(trifluoromethoxy)-phenyl]-1H-1,2,4-triazol-3-yl}phenyl)ethyl]dicarbonimidothioic diamide], the mortality at 50 µg/cm2 in data set [1] and in data set [3] was 50 to 100% throughout. The mortality at 200 ppm in data set [2] was 0 to 80%.

For the compound `Cc1ccc(C(C)C)c(N2C(=O)CS/C2=N\C(=O)NC(C)Cc2ccc(-c3ncn(-c4ccc(OC(F)(F)F)cc4)n3)cc2)c1` (stereo not drawn) [F8, (Z)-1-(3-(2-isopropropyl-5-methylphenyl)-4-oxothiazolidin-2-ylidene)-3-(1-(4-(1-(4-(trifluoromethoxy)phenyl)-1H-1,2,4-triazol-3-yl)phenyl)propan-2-yl)urea], the mortality at 50 µg/cm2 in data set [1] and in data set [3] was 50 to 100% in each case. Moreover, the mortality at 200 ppm in data set [2] came to 0%.

On to `CC(C)c1ccccc1NC(=S)NC(=O)N/C=C/c1ccc(-c2ncn(-c3ccc(OC(F)(F)F)cc3)n2)cc1` [F11], for which the mortality at 50 µg/cm2 in data set [1] and in data set [3] was 50 to 100% each time. Besides, in data set [2], the mortality at 200 ppm stood at 0%.

As to `CC(C)c1ccccc1N1C(=O)CS/C1=N\C(=O)N/C=C/c1ccc(-c2ncn(-c3ccc(OC(F)(F)F)cc3)n2)cc1` [F12], the mortality at 50 µg/cm2 in data set [1] and in data set [3] was 50 to 100% each time. Moreover, in data set [2], the mortality at 200 ppm turned out to be 0%.

Regarding `C/C(=C\NC(=O)/N=C1\SCC(=O)N1c1ccccc1C(C)C)c1ccc(-c2ncn(-c3ccc(OC(F)(F)F)cc3)n2)cc1` [F13, (Z)-1-(3-(2-isopropylphenyl)-4-oxothiazolidin-2-ylidene)-3-((E)-2-(4-(1-(4-(trifluoromethoxy)phenyl)-1H-1,2,4-triazol-3-yl)phenyl)prop-1-en-1-yl)urea], the mortality at 50 µg/cm2 in data set [1] and in data set [3] was 50 to 100% in each case. The mortality at 200 ppm in data set [2] was 0%.

For the compound `CC(C)c1ccccc1NC(=S)NC(=O)NC1CC1c1ccc(-c2ncn(-c3ccc(OC(F)(F)F)cc3)n2)cc1` (stereo not drawn) [F22], the mortality at 50 µg/cm2 in data set [1] and in data set [3] was 50 to 100% in each case. Also, the mortality at 200 ppm in data set [2] amounted to 0%.

As to `CCCc1ccccc1NC(=S)NC(=O)NC1CC1c1ccc(-c2ncn(-c3ccc(OC(F)(F)F)cc3)n2)cc1` (stereo not drawn) [F23], the mortality at 50 µg/cm2 in data set [1] and in data set [3] was 50 to 100% each time. In data set [2], the mortality at 200 ppm is 0%.

For the compound `CCc1cccc(C)c1NC(=S)NC(=O)NC1CC1c1ccc(-c2ncn(-c3ccc(OC(F)(F)F)cc3)n2)cc1` (stereo not drawn) [F24, N-(2-ethyl-6-methylphenyl)-N′-[2-(4-(1-[4-(trifluoromethoxy)phenyl]-1H-1,2,4-triazol-3-yl)phenyl)cyclopropyl]dicarbonimidothioic diamide], the mortality at 50 µg/cm2 in data set [1] and in data set [3] was 50 to 100% throughout. Further, the mortality at 200 ppm in data set [2] was determined as 0%.

For `Cc1cccc(C)c1NC(=S)NC(=O)NC1CC1c1ccc(-c2ncn(-c3ccc(OC(F)(F)F)cc3)n2)cc1` (stereo not drawn) [F25], the mortality at 50 µg/cm2 in data set [1] and in data set [3] was 50 to 100% throughout. Further, in data set [2], the mortality at 200 ppm stood at 0%.

Turning to `CCc1ccc(C)cc1NC(=S)NC(=O)NC1CC1c1ccc(-c2ncn(-c3ccc(OC(F)(F)F)cc3)n2)cc1` (stereo not drawn) [F27, N-(2-ethyl-5-methylphenyl)-N′-[2-(4-{1-[4-(trifluoromethoxy)phenyl]-1H-1,2,4-triazol-3-yl}phenyl)cyclopropyl]dicarbonimidothioic diamide], the mortality at 50 µg/cm2 in data set [1] and in data set [3] was 50 to 100% each time. In addition, the mortality at 200 ppm in data set [2] worked out at 0%.

Take `Cc1ccc(C(C)C)c(NC(=S)NC(=O)NC2CC2c2ccc(-c3ncn(-c4ccc(OC(F)(F)F)cc4)n3)cc2)c1` (stereo not drawn) [F28, N-[5-methyl-2-(propan-2-yl)phenyl]-N-[2-(4-{1-[4-(trifluoromethoxy)phenyl]-1H-1,2,4-triazol-3-yl}phenyl)cyclopropyl]dicarbonimidothioic diamide]: the mortality at 50 µg/cm2 in data set [1] and in data set [3] was 50 to 100% throughout. Moreover, the mortality at 200 ppm in data set [2] is 0%.

As for `CCCc1ccccc1N1C(=O)CS/C1=N\C(=O)NC1CC1c1ccc(-c2ncn(-c3ccc(OC(F)(F)F)cc3)n2)cc1` (stereo not drawn) [F30, (Z)-1-(4-oxo-3-(2-propylphenyl)thiazolidin-2-ylidene)-3-(2-(4-(1-(4-(trifluoromethoxy)phenyl)-1H-1,2,4-triazol-3-yl)phenyl)cyclopropyl)urea], the mortality at 50 µg/cm2 in data set [1] and in data set [3] was 50 to 100% in each case. In addition, the mortality at 200 ppm in data set [2] is 0%.

On to `CCc1cccc(C)c1N1C(=O)CS/C1=N\C(=O)NC1CC1c1ccc(-c2ncn(-c3ccc(OC(F)(F)F)cc3)n2)cc1` (stereo not drawn) [F31, (Z)-1-(3-(2-ethyl-6-methylphenyl)-4-oxothiazolidin-2-ylidene)-3-(2-(4-(1-(4-(trifluoromethoxy)phenyl)-1H-1,2,4-triazol-3-yl)phenyl)cyclopropyl)urea], for which the mortality at 50 µg/cm2 in data set [1] and in data set [3] was 50 to 100% each time. Moreover, the mortality at 200 ppm in data set [2] came to 0%.

Turning to `Cc1cccc(C)c1N1C(=O)CS/C1=N\C(=O)NC1CC1c1ccc(-c2ncn(-c3ccc(OC(F)(F)F)cc3)n2)cc1` (stereo not drawn) [F32, (Z)-1-(3-(2,6-dimethylphenyl)-4-oxothiazolidin-2-ylidene)-3-(2-(4-(1-(4-(trifluoromethoxy)phenyl)-1H-1,2,4-triazol-3-yl)phenyl)cyclopropyl)urea], the mortality at 50 µg/cm2 in data set [1] and in data set [3] was 50 to 100% each time. Besides, the mortality at 200 ppm in data set [2] is 0%.

With `COc1ccc(C(C)C)c(N2C(=O)CS/C2=N\C(=O)NCCCCc2ccc(-c3ncn(-c4ccc(OC(F)(F)F)cc4)n3)cc2)c1` [P156, P682, (Z)-1-(3-(2-isopropyl-5-methoxyphenyl)-4-oxothiazolidin-2-ylidene)-3-(4-(4-(1-(4-(trifluoromethoxy)phenyl)-1H-1,2,4-triazol-3-yl)phenyl)butyl)urea], the mortality at 50 µg/cm2 in data set [1] and in data set [3] was 50 to 100% throughout. Also, the “YFM % Control (or Mortality) rating” value in data set [4] was “A (80-100)”.

Regarding `Cc1ccc(C(C)C)c(N2C(=O)CS/C2=N\C(=O)NCCC#Cc2ccc(-c3ncn(-c4ccc(OC(F)(F)F)cc4)n3)cc2)c1` [P160, (Z)-1-(3-(2-isopropyl-5-methylphenyl)-4-oxothiazolidin-2-ylidene)-3-(4-(4-(1-(4-(trifluoromethoxy)phenyl)-1H-1,2,4-triazol-3-yl)phenyl)but-3-yn-1-yl)urea], the mortality at 50 µg/cm2 in data set [1] and in data set [3] was 50 to 100% each time. The “YFM % Control (or Mortality) rating” value in data set [4] was “B (More than 0-Less than 80)”.

In the case of `CC(C)c1ccccc1N1C(=O)CS/C1=N\C(=O)NCC(C)c1ccc(-c2ncn(-c3ccc(OC(F)(F)F)cc3)n2)cc1` (stereo not drawn) [P205, (Z)-1-(3-(2-isopropylphenyl)-4-oxothiazolidin-2-ylidene)-3-(2-(4-(1-(4-(trifluoromethoxy)phenyl)-1H-1,2,4-triazol-3-yl)phenyl)propyl)urea], the mortality at 50 µg/cm2 in data set [1] and in data set [3] was 50 to 100% in each case. In addition, in data set [4], the “YFM % Control (or Mortality) rating” value is “A (80-100)”.

`COc1ccc(C(C)C)c(N2C(=O)CS/C2=N\C(=O)NCC(C)c2ccc(-c3ncn(-c4ccc(OC(F)(F)F)cc4)n3)cc2)c1` (stereo not drawn) [P679, (Z)-1-(3-(2-isopropyl-5-methoxyphenyl)-4-oxothiazolidin-2-ylidene)-3-(2-(4-(1-(4-(trifluoromethoxy)phenyl)-1H-1,2,4-triazol-3-yl)phenyl)propyl)urea]: the mortality at 50 µg/cm2 in data set [1] and in data set [3] was 50 to 100% throughout. For the same compound, the “YFM % Control (or Mortality) rating” value in data set [4] is on record as “A (80-100)”.

The values are drawn from patent US9783532B2, “Molecules having certain pesticidal utilities, and intermediates, compositions, and processes related thereto” (Dow AgroSciences LLC, priority 2013, dated 2017).
